In ChEMBL document CHEMBL1201862, “PubChem BioAssay data set” (2004):
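Test compounds were applied to cells in 96-well plates for 48 hours at 5 doses. Here, GI50 denotes the concentration required for 50% inhibition of growth.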 The source made the active and inactive calls. No stated cut-off is given here; in the data, active = GI50 up to about 1.1 µM and inactive = higher.

Columns and labels:
Assay in all cases: NCI-60 cell line screen, 48 h
[1] = test system: SF-295
[2] = test system: SNB-19
[3] = test system: OVCAR-4
[4] = test system: NCI-H460
[5] = test system: OVCAR-5
[6] = test system: CCRF-CEM
[7] = test system: Malme-3M
[8] = test system: COLO 205
[9] = test system: UO-31
[10] = test system: SK-MEL-28
[11] = test system: SK-MEL-5
[12] = test system: HOP-92
[13] = test system: CAKI-1
[14] = test system: MOLT-4
[15] = test system: SK-MEL-2
[16] = test system: LOX IMVI
[17] = test system: ACHN
[18] = test system: K562
[19] = test system: HOP-62
[20] = test system: NCI-H522

Row | SMILES | GI50 [1] | GI50 [2] | GI50 [3] | GI50 [4] | GI50 [5] | GI50 [6] | GI50 [7] | GI50 [8] | GI50 [9] | GI50 [10] | GI50 [11] | GI50 [12] | GI50 [13] | GI50 [14] | GI50 [15] | GI50 [16] | GI50 [17] | GI50 [18] | GI50 [19] | GI50 [20]
1 | OCc1cc2ccncc2c2c1[nH]c1ccccc12 | 5.81 µM (inactive) | 6.49 µM (inactive) | 6.95 µM (inactive) | 2.76 µM (inactive) | 3.95 µM (inactive) | 7.33 µM (inactive) | 6.95 µM (inactive) | 6.82 µM (inactive) | 7.53 µM (inactive) | 9.35 µM (inactive) | 8 µM (inactive) | 12.1 µM (inactive) | 4.65 µM (inactive) | 3.66 µM (inactive) | 12.1 µM (inactive) | 3.44 µM (inactive) | 3.83 µM (inactive) | 7.55 µM (inactive) | – | –
2 | CCOC(=O)/C=C(\C)c1ccc(C)cc1C | > 100 µM (inactive) | > 100 µM (inactive) | > 100 µM (inactive) | > 100 µM (inactive) | > 100 µM (inactive) | 49.2 µM (inactive) | 26.1 µM (inactive) | > 100 µM (inactive) | > 100 µM (inactive) | 21.9 µM (inactive) | 34.3 µM (inactive) | 29.8 µM (inactive) | > 100 µM (inactive) | > 100 µM (inactive) | 45.2 µM (inactive) | 16.3 µM (inactive) | > 100 µM (inactive) | 45.1 µM (inactive) | – | –
3 | C/C(=N\NC(=O)c1ccncc1)c1cccc(C(F)(F)F)c1 | – | – | > 10 µM (inactive) | > 10 µM (inactive) | – | > 10 µM (inactive) | > 10 µM (inactive) | > 10 µM (inactive) | > 10 µM (inactive) | > 10 µM (inactive) | > 10 µM (inactive) | > 10 µM (inactive) | > 10 µM (inactive) | > 10 µM (inactive) | – | > 10 µM (inactive) | – | > 10 µM (inactive) | > 10 µM (inactive) | –
4 | CC1=NN(c2ccccc2)C(=O)C1=C1SCCCS1 | 27.2 µM (inactive) | 22.5 µM (inactive) | – | 35.2 µM (inactive) | 54 µM (inactive) | 11.7 µM (inactive) | 41.8 µM (inactive) | 15.9 µM (inactive) | 34.2 µM (inactive) | 48.6 µM (inactive) | 31.2 µM (inactive) | 25.5 µM (inactive) | 15 µM (inactive) | 16 µM (inactive) | 56 µM (inactive) | 23.6 µM (inactive) | > 100 µM (inactive) | 21.1 µM (inactive) | 42.1 µM (inactive) | 18.1 µM (inactive)
5 | CCc1cc2c(oc3cc4ccccc4cc32)c(=O)[nH]1 | > 10 µM (inactive) | > 10 µM (inactive) | > 10 µM (inactive) | > 10 µM (inactive) | > 10 µM (inactive) | – | > 10 µM (inactive) | – | > 10 µM (inactive) | – | – | > 10 µM (inactive) | – | – | > 10 µM (inactive) | > 10 µM (inactive) | > 10 µM (inactive) | – | – | > 10 µM (inactive)
6 | N=C(N)c1csc([C@@H]2O[C@H](CO)[C@@H](O)[C@H]2O)n1 | > 100 µM (inactive) | > 100 µM (inactive) | > 100 µM (inactive) | > 100 µM (inactive) | – | > 100 µM (inactive) | > 100 µM (inactive) | – | > 100 µM (inactive) | > 100 µM (inactive) | > 100 µM (inactive) | – | > 100 µM (inactive) | > 100 µM (inactive) | > 100 µM (inactive) | > 100 µM (inactive) | > 100 µM (inactive) | > 100 µM (inactive) | – | –
7 | Cc1oc2nc(N(C)C)n3cnnc3c2c1C | > 100 µM (inactive) | > 100 µM (inactive) | > 100 µM (inactive) | > 100 µM (inactive) | > 100 µM (inactive) | > 100 µM (inactive) | – | > 100 µM (inactive) | > 100 µM (inactive) | > 100 µM (inactive) | > 100 µM (inactive) | > 100 µM (inactive) | > 100 µM (inactive) | > 100 µM (inactive) | > 100 µM (inactive) | – | > 100 µM (inactive) | > 100 µM (inactive) | > 100 µM (inactive) | > 100 µM (inactive)
8 | CCN(CC)CCSc1nc(-c2c[nH]c3nc(C)ccc3c2=O)n[nH]1 | > 100 µM (inactive) | > 100 µM (inactive) | > 100 µM (inactive) | > 100 µM (inactive) | > 100 µM (inactive) | > 100 µM (inactive) | > 100 µM (inactive) | > 100 µM (inactive) | > 100 µM (inactive) | > 100 µM (inactive) | > 100 µM (inactive) | – | > 100 µM (inactive) | > 100 µM (inactive) | > 100 µM (inactive) | > 100 µM (inactive) | > 100 µM (inactive) | > 100 µM (inactive) | > 100 µM (inactive) | > 100 µM (inactive)
9 | N#C/C(=C/NC(=S)c1ccncc1)C(N)=O | > 100 µM (inactive) | > 100 µM (inactive) | > 100 µM (inactive) | > 100 µM (inactive) | > 100 µM (inactive) | – | – | > 100 µM (inactive) | > 100 µM (inactive) | > 100 µM (inactive) | > 100 µM (inactive) | > 100 µM (inactive) | > 100 µM (inactive) | > 100 µM (inactive) | > 100 µM (inactive) | > 100 µM (inactive) | > 100 µM (inactive) | – | > 100 µM (inactive) | –
10 | CSC1=N/C(=C\c2ccccc2)C(=O)N1CN1CCCCC1 | > 100 µM (inactive) | 46.1 µM (inactive) | 16.4 µM (inactive) | – | > 100 µM (inactive) | 52.5 µM (inactive) | 54.5 µM (inactive) | 65.5 µM (inactive) | 39.5 µM (inactive) | > 100 µM (inactive) | 43.1 µM (inactive) | 11.7 µM (inactive) | – | 37.5 µM (inactive) | > 100 µM (inactive) | 38.5 µM (inactive) | 34.9 µM (inactive) | 26.7 µM (inactive) | > 100 µM (inactive) | 42.3 µM (inactive)
11 | Cc1ccc(S(=O)(=O)N/N=C2\C=CC3(CC2)C(=O)N(I)c2ccccc23)cc1 (stereo unspecified) | 41.5 µM (inactive) | > 100 µM (inactive) | > 100 µM (inactive) | 94.4 µM (inactive) | > 100 µM (inactive) | 75 µM (inactive) | 0.055 µM (active) | > 100 µM (inactive) | > 100 µM (inactive) | > 100 µM (inactive) | > 100 µM (inactive) | 89.7 µM (inactive) | > 100 µM (inactive) | 42.6 µM (inactive) | 48.1 µM (inactive) | > 100 µM (inactive) | > 100 µM (inactive) | 25.1 µM (inactive) | > 100 µM (inactive) | –
12 | O=c1[nH]c2ccc([N+](=O)[O-])cc2nc1/C(=N/Nc1ccccc1)C(O)c1ccco1 (stereo unspecified) | 83.4 µM (inactive) | > 100 µM (inactive) | 66.2 µM (inactive) | > 100 µM (inactive) | > 100 µM (inactive) | 16.6 µM (inactive) | 63.8 µM (inactive) | 38.8 µM (inactive) | 44.2 µM (inactive) | > 100 µM (inactive) | 25.8 µM (inactive) | > 100 µM (inactive) | – | 38.5 µM (inactive) | > 100 µM (inactive) | > 100 µM (inactive) | 33.9 µM (inactive) | 35.2 µM (inactive) | > 100 µM (inactive) | 6.44 µM (inactive)
13 | Cc1ccc2nc(C(C)C)c(=O)[nH]c2c1 | 71 µM (inactive) | > 100 µM (inactive) | 71.9 µM (inactive) | > 100 µM (inactive) | > 100 µM (inactive) | > 100 µM (inactive) | > 100 µM (inactive) | > 100 µM (inactive) | > 100 µM (inactive) | > 100 µM (inactive) | > 100 µM (inactive) | > 100 µM (inactive) | 43.4 µM (inactive) | > 100 µM (inactive) | 15 µM (inactive) | – | > 100 µM (inactive) | > 100 µM (inactive) | 17.2 µM (inactive) | 82.8 µM (inactive)
14 | Nc1nncc2c1ccn2C1OC(CO)C(O)C1O (stereo unspecified) | > 100 µM (inactive) | > 100 µM (inactive) | > 100 µM (inactive) | > 100 µM (inactive) | > 100 µM (inactive) | > 100 µM (inactive) | > 100 µM (inactive) | > 100 µM (inactive) | > 100 µM (inactive) | 82.8 µM (inactive) | > 100 µM (inactive) | > 100 µM (inactive) | – | > 100 µM (inactive) | > 100 µM (inactive) | > 100 µM (inactive) | > 100 µM (inactive) | > 100 µM (inactive) | > 100 µM (inactive) | –
15 | O=C(N/N=C/c1cc(-c2ccccc2Cl)c(-c2ccccc2Cl)o1)c1ccncc1 | > 100 µM (inactive) | > 100 µM (inactive) | > 100 µM (inactive) | – | > 100 µM (inactive) | – | > 100 µM (inactive) | > 100 µM (inactive) | – | > 100 µM (inactive) | – | > 100 µM (inactive) | > 100 µM (inactive) | – | > 100 µM (inactive) | > 100 µM (inactive) | > 100 µM (inactive) | > 10 µM (inactive) | > 100 µM (inactive) | 83.6 µM (inactive)
16 | COc1ccc(C2c3cc4c(cc3OC(Nc3ccccc3)C2C)OCO4)cc1 (stereo unspecified) | 25.5 µM (inactive) | > 100 µM (inactive) | – | 7.98 µM (inactive) | > 100 µM (inactive) | 14.1 µM (inactive) | 63.5 µM (inactive) | 36.1 µM (inactive) | 29.5 µM (inactive) | > 100 µM (inactive) | 79.4 µM (inactive) | 23.8 µM (inactive) | 25.4 µM (inactive) | 11.2 µM (inactive) | > 100 µM (inactive) | 27.7 µM (inactive) | 21.8 µM (inactive) | 15.2 µM (inactive) | > 100 µM (inactive) | 12.1 µM (inactive)
